Laboratory results taken from US9156839B2, “Fused bicyclic sulfamoyl derivatives and the use thereof as medicaments for the treatment of hepatitis B” (JANSSEN SCIENCES IRELAND UC, priority 2012, dated 2015).

How the values were obtained:
Format in all cases: cell-based
HBV [1] = test: Anti-HBV activity in HepG2.2.15 stable transfected cell line, HBV DNA from secreted virions by realtime PCR; conditions: Hepatitis B virus, read-out: HBV - HepG2.15
HBV [2] = test: Anti-HBV activity in HepG2.117 inducible HBV producing cell line (Tet-off), intracellular HBV DNA by realtime PCR; conditions: Hepatitis B virus, read-out: HepG2 117 EC50
[3] = Cytotoxicity in HepG2 cells, Resazurin assay; conditions: human, 4 days incubation, Resazurin viability
Protocol: Cytotoxicity of the compounds was also tested using HepG2 cells, incubated for 4 days in the presence of compounds. The viability of the cells was assessed using a Resazurin assay.

[4] = 144 h, HepG2.2.15 cells, 6 days of treatment, HBV DNA from secreted virions
[5] = 72 h, HepG2.117 cells, 3 days of treatment, intracellular HBV DNA

O=S(=O)(NC1CCCCC1)c1ccc2[nH]nc(Nc3ccc(F)cc3)c2c1 [Compound 3]
EC50 (HBV [1]; [4]): 1 µM | EC50 (HBV [2]; [5]): 4.6 µM | CC50 at 4 days [3]: > 25 µM

O=S(=O)(NC1CCCCC1)c1ccc2onc(Nc3ccc(F)cc3)c2c1 [Compound 4]
EC50 (HBV [1]; HepG2.2.15, 144 h): 0.74 µM | EC50 (HBV [2]; HepG2.117, 72 h): 1.2 µM | CC50 at 4 days [3]: > 25 µM

O=S(=O)(NC1CCCC1)c1ccc2[nH]nc(Nc3ccc(F)cc3)c2c1 [Compound 5]
EC50 (HBV [1]; [4]): 1 µM | EC50 (HBV [2]; [5]): 1.8 µM | CC50 at 4 days [3]: > 25 µM

Cn1nc(Nc2ccc(F)cc2)c2cc(S(=O)(=O)NC3CCCC3)ccc21 [Compound 6]
EC50 (HBV [1]; [4]): 0.49 µM | EC50 (HBV [2]; [5]): 0.82 µM | CC50 at 4 days [3]: > 25 µM

CC(C)n1nc(Nc2ccc(F)cc2)c2cc(S(=O)(=O)NC3CCCC3)ccc21 [Compound 7]
EC50 (HBV [1]; [4]): > 50 µM | EC50 (HBV [2]; [5]): > 25 µM | CC50 at 4 days [3]: > 25 µM

O=S(=O)(NC1CCCC1)c1ccc2c(c1)c(Nc1ccc(F)cc1)nn2C1CC1 [Compound 8]
EC50 (HBV [1]; [4]): 0.21 µM | EC50 (HBV [2]; [5]): 0.62 µM | CC50 at 4 days [3]: > 25 µM

CC(=O)n1nc(Nc2ccc(F)cc2)c2cc(S(=O)(=O)NC3CCCC3)ccc21 [Compound 9]
EC50 (HBV [1]; [4]): > 50 µM | EC50 (HBV [2]; [5]): 18.4 µM | CC50 at 4 days [3]: > 25 µM

COC(=O)n1nc(Nc2ccc(F)cc2)c2cc(S(=O)(=O)NC3CCCC3)ccc21 [Compound 10]
EC50 (HBV [1]; [4]): 46.5 µM | EC50 (HBV [2]; [5]): > 25 µM | CC50 at 4 days [3]: > 25 µM

O=S(=O)(N[C@H]1CCOC1)c1ccc2[nH]nc(Nc3ccc(F)c(F)c3)c2c1 [Compound 11]
EC50 (HBV [1]; [4]): 3.3 µM | EC50 (HBV [2]; [5]): 12.4 µM | CC50 at 4 days [3]: > 25 µM

Cc1cc(Nc2n[nH]c3ccc(S(=O)(=O)N[C@H]4CCOC4)cc23)ccc1F [Compound 12]
EC50 (HBV [1]; [4]): 5.2 µM | EC50 (HBV [2]; [5]): > 25 µM | CC50 at 4 days [3]: > 25 µM

CC(C)NS(=O)(=O)c1ccc2[nH]nc(Nc3ccc(F)c(F)c3)c2c1 [Compound 13]
EC50 (HBV [1]; [4]): 8.9 µM | EC50 (HBV [2]; [5]): > 25 µM | CC50 at 4 days [3]: > 25 µM

Cc1cc(Nc2nn(C)c3ccc(S(=O)(=O)N[C@H]4CCOC4)cc23)ccc1F [Compound 14]
EC50 (HBV [1]; [4]): 1.1 µM | EC50 (HBV [2]; [5]): 8.5 µM | CC50 at 4 days [3]: > 25 µM

CC(C)NS(=O)(=O)c1ccc2c(c1)c(Nc1ccc(F)c(C(F)F)c1)nn2C [Compound 15]
EC50 (HBV [1]; [4]): 0.44 µM | EC50 (HBV [2]; [5]): 2.8 µM | CC50 at 4 days [3]: > 25 µM

Cn1nc(Nc2ccc(F)c(C(F)F)c2)c2cc(S(=O)(=O)N[C@H]3CCOC3)ccc21 [Compound 16]
EC50 (HBV [1]; [4]): 1.3 µM | EC50 (HBV [2]; [5]): 4.5 µM | CC50 at 4 days [3]: > 25 µM

CC(C)NS(=O)(=O)c1ccc2cnc(Nc3ccc(F)c(C(F)F)c3)n2c1 [Compound 17]
EC50 (HBV [1]; [4]): 0.56 µM | EC50 (HBV [2]; [5]): 14.2 µM | CC50 at 4 days [3]: > 25 µM

Cc1cc(Nc2ncc3ccc(S(=O)(=O)N[C@H]4CCOC4)cn23)ccc1F [Compound 18]
EC50 (HBV [1]; [4]): 1.7 µM | EC50 (HBV [2]; [5]): > 25 µM | CC50 at 4 days [3]: > 25 µM

Cc1cc(Nc2nnc3ccc(S(=O)(=O)NC(C)C)cn23)ccc1F [Compound 19]
EC50 (HBV [1]; [4]): 1.2 µM | EC50 (HBV [2]; [5]): 3.4 µM | CC50 at 4 days [3]: > 25 µM
